Source: patent publication US9409952B2, “Peptide-compound cyclization method” (Chugai Seiyaku Kabushiki Kaisha, priority 2011, dated 2016)
Where two headings read alike, the source gives them in different places. Starred links: 1 amine or outer side, 2 acyl side, 3 side chain; linkers in the order of their positions; H or OH if unused. Positions of bridges follow the written chain, without caps; N, C: chain ends. Non-standard residues stand in square brackets, D forms with d. Residues, ends and D or L forms follow the SMILES beside them. ξ: configuration not given here. *: point of attachment. NMeF = CN[C@@H](Cc1ccccc1)C(=O)O; NMeGABA = CN(CCCC(=O)[*:2])[*:1]; NMeL = CN[C@@H](CC(C)C)C(=O)O; NMeA = CN[C@@H](C)C(=O)O; Piperidide = C1CCN(*)CC1; ξP = O=C(O)C1CCCN1; Sar = CNCC(=O)O; tBu = CC(C)(C)*

Assays:
[1] = PAMPA (parallel artificial membrane permeability assay); type: in vitro ADME; details: PAMPA
How it was run: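 Artificial membrane was 10% (w/v) egg lecithin plus 0.5% (w/v) cholesterol in dodecane on a PVDF filter. A 10 mM DMSO stock was added at 0.5% (v/v) to donor buffer (50 mM MOPSO, pH 6.5, 5.0% glycocholic acid). After 18 h at 37 °C, LC/MS or LC/UV gave donor and acceptor levels for Pe.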

[2] = Metabolic stability in human hepatic microsome; type: in vitro ADME; details: microsomes
[3] = membrane permeation rate (Pe), 50 mM MOPSO buffer pH 6.5 with 5.0% glycocholic acid, 37° C., 18 hours, read-out: iPAMPA Pe
[4] = pH 7.4, human hepatic microsome, NADPH(+), read-out: CL NADPH(+)

CC(C)C[C@@H]1NC(=O)[C@H](CC(C)C)N(C)C(=O)[C@H](CC(C)C)N(C)C(=O)C[C@@H](C(=O)N2CCCCC2)NC(=O)[C@H](Cc2ccccc2)N(C)C(=O)C2CCCN2C(=O)[C@H]([C@@H](C)O)NC(=O)[C@H](Cc2ccccc2)N(C)C1=O (stereo partly drawn) [DP-706] ([NMeL][NMeL]L[NMeF]T[ξP][NMeF]D-Piperidide; lactam N-8)
Papp at 18 hours, 50 µM ([1]; pH 6.5): 48 ×10⁻⁶ cm/s | microsomal CLint at 1 uM ([2]; human, pH 7.4, CL NADPH(+)): 264 µL/min/mg

CC(C)C[C@H]1C(=O)N[C@@H](COC(C)(C)C)C(=O)N[C@H](C(=O)N2CCCCC2)CC(=O)N(C)[C@@H](C)C(=O)N(C)[C@@H](Cc2ccccc2)C(=O)N(C)[C@@H](CC(C)C)C(=O)N[C@@H]([C@@H](C)O)C(=O)N(C)[C@@H](C)C(=O)N1C [DP-707] ([NMeA][NMeF][NMeL]T[NMeA][NMeL]S(tBu)D-Piperidide; lactam N-8)
Papp at 18 hours, 50 µM [1, 3]: 29 ×10⁻⁶ cm/s | microsomal CLint at 1 uM [2, 4]: 84 µL/min/mg

CC(C)C[C@H]1C(=O)N[C@H](C(=O)N2CCCCC2)CC(=O)N[C@H](C)C(=O)N(C)[C@@H](Cc2ccccc2)C(=O)N(C)[C@@H](CC(C)C)C(=O)N[C@@H]([C@@H](C)O)C(=O)N(C)[C@@H](C)C(=O)N[C@@H](COC(C)(C)C)C(=O)N1C [DP-708] ([dA][NMeF][NMeL]T[NMeA]S(tBu)[NMeL]D-Piperidide; lactam N-8)
Papp at 18 hours, 50 µM [1, 3]: 16 ×10⁻⁶ cm/s | microsomal CLint at 1 uM [2, 4]: 35 µL/min/mg

CC(C)C[C@H]1C(=O)N[C@@H](COC(C)(C)C)C(=O)N[C@H](C(=O)N2CCCCC2)CC(=O)N(C)CC(=O)N[C@@H]([C@@H](C)O)C(=O)N(C)[C@@H](C)C(=O)N(C)[C@@H](Cc2ccccc2)C(=O)N(C)[C@@H](Cc2ccccc2)C(=O)N1C [DP-709] ([Sar]T[NMeA][NMeF][NMeF][NMeL]S(tBu)D-Piperidide; lactam N-8)
Papp at 18 hours, 50 µM [1, 3]: 35 ×10⁻⁶ cm/s | microsomal CLint at 1 uM [2, 4]: 90 µL/min/mg

CC(C)C[C@H]1C(=O)N(C)[C@@H](Cc2ccccc2)C(=O)N[C@H](C(=O)N2CCCCC2)CC(=O)N(C)[C@@H](C)C(=O)N[C@@H]([C@@H](C)O)C(=O)N(C)CC(=O)N[C@@H](COC(C)(C)C)C(=O)N(C)[C@@H](Cc2ccccc2)C(=O)N1C [DP-710] ([NMeA]T[Sar]S(tBu)[NMeF][NMeL][NMeF]D-Piperidide; lactam N-8)
Papp at 18 hours, 50 µM [1, 3]: 44 ×10⁻⁶ cm/s | microsomal CLint at 1 uM [2, 4]: 121 µL/min/mg

CC(C)C[C@H]1C(=O)N[C@@H](COC(C)(C)C)C(=O)N[C@H](C(=O)N2CCCCC2)CC(=O)N[C@@H](C)C(=O)N(C)[C@@H](Cc2ccccc2)C(=O)N(C)CC(=O)N(C)[C@@H](Cc2ccccc2)C(=O)N[C@@H]([C@@H](C)O)C(=O)N1C [DP-711] (A[NMeF][Sar][NMeF]T[NMeL]S(tBu)D-Piperidide; lactam N-8)
Papp at 18 hours, 50 µM [1, 3]: 29 ×10⁻⁶ cm/s | microsomal CLint at 1 uM [2, 4]: 217 µL/min/mg

CC(C)C[C@H]1C(=O)N(C)[C@@H](Cc2ccccc2)C(=O)N[C@H](C(=O)N2CCCCC2)CC(=O)N(C)CCCC(=O)N(C)[C@@H](C)C(=O)N(C)[C@@H](CC(C)C)C(=O)N[C@@H]([C@@H](C)O)C(=O)N(C)CC(=O)N1C [DP-712] ([NMeGABA][NMeA][NMeL]T[Sar][NMeL][NMeF]D-Piperidide; lactam N-8)
Papp at 18 hours, 50 µM [1, 3]: 12 ×10⁻⁶ cm/s | microsomal CLint at 1 uM [2, 4]: 57 µL/min/mg

CC(C)C[C@@H]1NC(=O)[C@H](CC(C)C)N(C)C(=O)[C@H](Cc2ccccc2)N(C)C(=O)[C@H]([C@@H](C)O)NC(=O)[C@H](CC(C)C)N(C)C(=O)CN(C)C(=O)CCCN(C)C(=O)C[C@@H](C(=O)N2CCCCC2)NC1=O [DP-713] ([NMeGABA][Sar][NMeL]T[NMeF][NMeL]LD-Piperidide; lactam N-8)
Papp at 18 hours, 50 µM [1, 3]: 27 ×10⁻⁶ cm/s | microsomal CLint at 1 uM [2, 4]: 169 µL/min/mg

CC(C)C[C@@H]1NC(=O)[C@H](CC(C)C)N(C)C(=O)[C@H]([C@@H](C)O)NC(=O)[C@H](Cc2ccccc2)N(C)C(=O)CN(C)C(=O)[C@H](CC(C)C)N(C)C(=O)[C@@H](C(C)C)NC(=O)C[C@@H](C(=O)N2CCCCC2)NC1=O [DP-714] ([dV][NMeL][Sar][NMeF]T[NMeL]LD-Piperidide; lactam N-8)
Papp at 18 hours, 50 µM [1, 3]: 31 ×10⁻⁶ cm/s | microsomal CLint at 1 uM [2, 4]: 145 µL/min/mg
